# Reference: US6017958A, “Method of treating malignant tumors with thyroxine analogues having no significant hormonal activity” (Octamer, Inc., priority 1997, dated 2000)
# Like-named read-outs stand apart in the source and are kept apart here.
# Tests used:
# [1] = tested on: protein phosphatase 2A (DU-145); experiment: Phosphatase activity, DU-145; format: cell-based, human
# Protocol: Compounds 1-13 were tested for protein phosphatase 2A activation in malignant tumor cell cultures in vitro according to the protocol described in Bauer et al., 1996, "Modification of Growth Related Enzymatic Pathways and Apparent Loss of Tumorigenicity of a Ras-Transformed Bovine Endothelial Cell Line by Treatment with 5-Iodo-6-Amino-1,2-Benzopyrone (INH2 BP)," International J. of Oncology 8:239-252. All other compounds were ineffective.
# [2] = tested on: MDA-MD-231 (mammary cancer); experiment: Cytocidal action/growth inhibition, MDA-MB-231; format: cell-based; conditions: Homo sapiens
# Protocol: Seven human cancer cell lines were obtained from the American Tissue Culture Collection (Rockville, Md.) and maintained in the recommended growth media. Cells were seeded into wells (2 cm^2) at a density of 2×10^4 cells/cm^2. Various concentrations of Compounds 1-13 were added to the media at the time of seeding.
# The cultures were incubated for 72 hours at 37° C. (5% CO2 atmosphere). Following incubation, cells were detached with trypsin and counted in a hemocytometer.
# I100 designates the concentration at which no viable cells remained; I50 the concentration at which 50% viable cells remained, as compared to a control.
# (§1) E-ras 20 cells were cultured as reported, Bauer et al., 1996, "Modification of growth related enzymatic pathways and apparent loss of tumorigenicity of a ras-transformed bovine endothelial cell line by treatment with 5-iodo-6-amino-1,2-benzopyrone (INH2 BP)" Intl. J. Oncol. 8:239-252; HT-144 (melanoma), DU-145 (prostatic cancer), HeLa (cervical cancer), HL 60 (promyelocytic leukemia), MDA-MB-231 (mammary cancer), SK-Br-3 (mammary cancer), T47D (ductal mammary cancer), A559 (lung cancer) were obtained from American Type Culture Collection (Rockville, Md.) and cultured in prescribed media. The effect of DIME was tested in cultures with a starting cell density of 2×10^4 cells per cm^2 and comparison of the effect of DIME on cell growth (intact cells identified by Trypan blue exclusion) was assayed by direct cell counting after trypsinization in a hemocytometer 72 hours after drug addition.
# (§2) For DIME-exposure experiments cells were seeded into 2 cm^2 wells at a density of 2×10^4 cells/cm^2. DIME at various concentrations was added to the medium at the time of seeding. The cell cultures were then incubated for 3 days (37° C. in 5% at CO2 atmosphere).
# E-ras 20 cells = experiment: Growth inhibition, E-ras 20; format: cell-based, bovine; conditions: Bos taurus, 72 h; day 3; Table 11; read-out: I50 (day 3)
# Protocol: as §1, §2
# [3] = tested on: E-ras 20 cells (E-ras transformed bovine endothelial cells); experiment: Tumorigenicity of pretreated E-ras 20 cells in athymic nude mice; format: in vivo, bovine cells in nude mice; conditions: 10 μM
# Protocol: E-ras transformed bovine endothelial cells (Bauer et al., 1996, Intl. J. Oncology 8:239-252) were exposed to 10 μM DIME for […]. The DIME-treated cells (10^5 or 10^6 cells/100 μL) were injected subcutaneously into nude mice and tumor progression followed for 25 days.
# Tumorigenicity of E-ras 20 Cells in athymic nude mice was assayed as described previously. Bauer et al., 1996, "Modification of growth related enzymatic pathways and apparent loss of tumorigenicity of a ras-transformed bovine endothelial cell line by treatment with 5-iodo-6-amino-1,2-benzopyrone (INH2 BP)" Intl. J. Oncol. 8:239-252. The in vivo antitumorigenic action of DIME was assayed on athymic mice inoculated with 10^6 MDA-MB-231 cells, as in the tumorgenicity assay. In about 10-14 days when subcutaneous tumors appeared, DIME treatment consisting of p.o. administration of DIME suspension (once a day) was commenced and continued for 28-32 days as reported, Kun et al., 1996, "Induction of tumor apotosis by methyl-3,5-diiodo-4-(4'-methoxyphenoxy) benzoate (DIME)", Abstract No. 102, Int. J. Oncol. 9:supplement 829.
# The structural specificity of DIME and its homologs and analogs can be assessed by examining Table 7 and Table 8. We have prepared 17 novel structural analogs of DIME and compared the antitumor activity of 10 of the compounds (Table 8) which appears sufficient to draw some general conclusions. The biological assay chosen was the determination of antitumorigenic action of the drugs on the in vivo tumorigenicity of E-ras cells in nude mice, Bauer et al., 1996, "Modification of growth related enzymatic pathways and apparent loss of tumorigenicity of a ras-transformed bovine endothelial cell line by treatment with 5-iodo-6-amino-1,2-benzopyrone (INH2 BP)" Intl. J. Oncol. 8:239-252. E-ras 20 cells (10^5 or 10^6) were incubated with 10 μM DIME or analogs for 4 days, then 10^5 and 10^6 cells were inoculated subcutaneously into nude mice (5 per test) and rates of tumor formation quantitated by direct tumor volume measurements (cf. 2). […] Identical antitumorigenic tests were performed with nine DIME analogs and taking the effect of DIME as 100% (comparing tumor sizes at day 25) the antitumor efficacy was calculated as percent of DIME activity. […] Results summarized in Table 8 illustrate that substituents in R1 and R2 determine antitumor efficacy.
# The efficacy of DIME analogs on in vivo tumorigenicity of Eras 20 cells i
# athymic mice was compared to that of DIME (compound 1) which was taken as
# 100, determining the size of tumor reduction at day 25. Pretreatment with
# DIME or its analogs (Table 7) was with 10 μM for 4 days prior to s.c.
# MDA-MB-231 cells = experiment: Colony formation / cell killing; format: cell-based, human
# Protocol: Assays for Quantitation of colony formation were performed as reported, Vidair, et al., 1986 "Evaluation of a Role for Intracellular Na^+, K^+, Ca2^+ and Mg^2+ in hyperthermic cell killing" Radiation Res. 105:187-200.
compound,measurement,setting,value
"COC(=O)c1cc(I)c(Oc2ccc(OC)cc2)c(I)c1 [Compound 1, Methyl 3,5-diiodo-4-(4'-methoxyphenoxy)benzoate]",Phosphatase Activity,"[1]; 50 μM DIME, untreated 12.1 ± 3",19.1 ± 2.5 fmol Pi/mg protein × min.
same,"activation of protein phosphatase 2A, fold","[1]; 50 μM, DU-145 cells",at least two-fold
same,IC50,"[2]; MDA-MB-231, 72 h, day 3, Table 11, read-out: I50 (day 3)",400 nM
same,IC50,"[2]; MDA-MB-231, 72 h, Table 4, read-out: I50",400 nM
same,IC100,"[2]; MDA-MB-231, 72 h, Table 4, read-out: I100 (no viable cells remained)",3 µM
same,IC50,E-ras 20 cells,1000 nM
same,tumorigenicity of pretreated cells,"[3]; 3 days pretreatment, followed 25 days",nearly completely abolished tumorigenicity
same,tumor formation from pretreated cells (FIG. 4),[3]; 4 days pretreatment,tumor formation was completely abrogated
same,"Efficacy (inhibition of E-ras 20 tumorigenicity, DIME = 100)","[3]; 4 days pretreatment, tumor size at day 25",100%
same,colony forming ability,"MDA-MB-231 cells; 1-2 μM, 10 days",profoundly diminished
same,cell killing after drug removal,MDA-MB-231 cells; DIME removed prior to end of 8 hours incubation,cell killing was prevented and drug-induced morphologic changes were completely reversed
